Measurements as given in BindingDB's records for doi:10.3109/14756369809035823 (Orstom, 1998).
Where “and” joins values, the source holds several entries; their conditions need not be identical. Identical values can stand only once.

The molecules below were run against Trypanothione reductase (Crithidia fasciculata, UniProt P39040) (assay: Inhibition Assay). Settings: pH 7.8; 25 °C.
Excerpt: Crithidia fasciculata trypanothione reductase (cfTR) was purifed from E.coli using the expression system. The activity of the cfTR was observed from the rate of oxidation of the co-substrate NADPH to NADP+ as measured by a decrease in absorbance at 340nm.

Trypanothione reductase, sequence (P39040 whole entry): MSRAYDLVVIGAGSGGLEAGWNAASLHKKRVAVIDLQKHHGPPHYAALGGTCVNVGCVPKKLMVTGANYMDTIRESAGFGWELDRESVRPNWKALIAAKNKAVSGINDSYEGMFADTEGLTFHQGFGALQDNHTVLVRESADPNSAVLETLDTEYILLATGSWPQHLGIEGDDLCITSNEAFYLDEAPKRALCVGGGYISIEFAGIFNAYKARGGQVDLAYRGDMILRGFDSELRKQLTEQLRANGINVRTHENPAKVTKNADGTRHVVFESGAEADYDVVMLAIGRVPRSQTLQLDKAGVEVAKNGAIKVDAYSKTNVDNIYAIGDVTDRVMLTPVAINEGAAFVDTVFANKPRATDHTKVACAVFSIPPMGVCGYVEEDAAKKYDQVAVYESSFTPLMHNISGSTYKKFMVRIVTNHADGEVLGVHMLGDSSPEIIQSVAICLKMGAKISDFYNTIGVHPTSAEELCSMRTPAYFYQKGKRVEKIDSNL

Which IC50 does the source give for `COc1ccc2cc1Oc1ccc(cc1)C[C@H]1c3c(cc(OC)c(O)c3Oc3cc4c(cc3OC)CCN(C)[C@@H]4C2)CCN1C` here?
The IC50 was 55 µM.

For `COc1cc2c3cc1Oc1c(O)c(OC)cc4c1[C@H](Cc1ccc(OC)c(c1)-c1cc(ccc1O)C[C@H]3N(C)CC2)N(C)CC4`, which IC50 is on record?
Its IC50 is 60 µM.

With `COc1ccc2cc1Oc1ccc(cc1)C[C@H]1c3cc(c(OC)cc3CCN1C)Oc1c(OC)c(OC)cc3c1[C@@H](C2)N(C)CC3` as the molecule, how does the IC50 read?
The IC50 was 122 µM and 235 µM.

Which IC50 does the source give for `COc1cc2c3cc1Oc1c(O)c(OC)cc4c1[C@H](Cc1ccc(cc1)Oc1cc(ccc1O)C[C@H]3NCC2)N(C)CC4` (racemic) [Daphnoline (R,S)] here?
The IC50 was 50 µM.

Which IC50 does the source give for `COc1cc2c3cc1Oc1cc(ccc1O)C[C@@H]1c4c(cc(OC)c(O)c4Oc4ccc(cc4)C[C@H]3N(C)CC2)CCN1C` [(-)-BEBEERINE] here?
The IC50 was 60 µM.

`COc1ccc2cc1Oc1ccc(cc1)C[C@H]1c3c(cc4c(c3Oc3cc5c(cc3OC)CCN(C)[C@H]5C2)OCO4)CCN1C` [Cepharanthine] was tested. Which IC50 did it give?
The IC50 was 15 µM.

Which IC50 does the source give for `COc1cc2c3c(c1OC)Oc1ccc(cc1)C[C@@H]1c4c(cc(OC)c(OC)c4Oc4ccc(cc4)C[C@H]3N(C)CC2)CCN1C` [Cycleanine (R,R)] here?
Its IC50 is 303 µM.

`COc1ccc2cc1Oc1ccc(cc1)C[C@H]1c3c(cc(O)c(OC)c3Oc3cc4c(cc3OC)CCN(C)[C@@H]4C2)CCN1C` [Gyrocarpine (S,R)] was tested. Which IC50 did it give?
The IC50 was 58 µM.

With `COc1ccc2cc1Oc1ccc(cc1)C[C@H]1c3cc(c(OC)cc3CCN1C)Oc1c(O)c(OC)cc3c1[C@@H](C2)N(C)CC3` [Limacine (R,R)] as the molecule, how does the IC50 read?
Its IC50 is 90 µM.

`COc1cc2c(cc1O)[C@@H](Cc1ccc(Oc3cc(C[C@H]4NCCc5cc(OC)c(O)cc54)ccc3O)cc1)NCC2` [Lindoldhamine (R,R)] was tested. Which IC50 did it give?
The IC50 was 27 µM.
